# Columns and labels:
# OT-II CD4 T cells = experiment: OT-II CD4 T cell adoptive transfer, response to OVA+P:IC immunization; type: in vivo, mouse; details: 0.9375 mg/kg chow vs vehicle control, five days post-immunization
# Protocol: 2 hours before adoptive transfer, C57BL/6 recipient mice received 200 rads irradiation. […] B cells from donor mice were isolated via depletion of CD43+ cells with anti-CD43-conjugated magnetic beads (MACS anti-mouse CD43; Miltenyi Biotec). Alternatively, CD4+ T cells were isolated via CD4 positive selection (MACS anti-mouse CD4 (L3T4) Miltenyi Biotec). Resultant populations were >97% pure based on flow cytometric analyses. Donor B cells were labeled with either CellTrace Violet (Molecular Probes) or CFSE (Molecular Probes) at 5 μM for 5 minutes at room temperature prior to transfer. Donor CD4 T cells were labeled with CFSE (Molecular Probes) at 5 μM for 5 minutes at room temperature prior to transfer. 1-2×10^6 donor cells in 200 μl PBS were adoptively transferred via IV injection. 24 hours post transfer, tamoxifen was administered to activate Cre. Tamoxifen (Sigma-Aldrich) was dissolved in 100% corn oil (Sigma-Aldrich) at 20 mg/ml. Recipient mice were injected IP with 100 μl (2 mg) on two consecutive days.
# Diet dose (DD) is calculated by multiplying the single daily dose (SD) by the body weight of a mouse (BW) and dividing that by the daily food intake (FI) [DD=(SD×BW)/FI].
# For VH125.NOD experiments animals are placed on control chow immediately after weaning. […]
# PLCγ = experiment: phosphorylated signaling intermediaries after BCR stimulation: PLCγ; type: cell-based, mouse; details: all doses of inhibitor (15, 60, 490 nM), preincubation
# Protocol: Cells are then washed 2× in serum free IMDM, and stimulated with 5 μg/ml of F(ab′)2 rabbit anti-mouse anti-IgG (H&L; Invitrogen) or 10 μg/ml anti-CD3-biotin (BD Biosciences)+20 μg/ml streptavidin (Sigma-Aldrich) for 2 minutes. Signaling was stopped by addition of 20% PFA to a final concentration of 2%, incubated at 37° C. for 15 minutes and resuspended in 100% ice-cold MeOH (directly from −80° C.). Cells were then placed on ice for 30 minutes and placed at −20° C. for storage. For analysis, cells were stained with B220-BV786, CD4-BV711, CD8-BV421, and/or pAKT-Alexa Fluor 647 (BD Biosciences), pPLCγ-PE (BD Biosciences), pBTK-BV421 (BD Biosciences) pSyk/Zap70-PE (BD Biosciences) at room temperature for 1 hour. Cells were washed 3 times and samples were acquired in triplicate on an LSR Fortessa X-20 (BD) with analysis using FlowJo software.
smiles,measurement,setting,value
"CC[C@H](Nc1ncnc2nc[nH]c12)c1nc2cccc(F)c2c(=O)n1-c1ccccc1 [idelalisib, 5-fluoro-3-phenyl-2-[(1S)-1-(7H-purin-6-ylamino)propyl]-4(3H)-quinazolinone]",proliferation (CFSE) of OT-II T cells,OT-II CD4 T cells,equivalent levels
same,upregulation of the activation marker CD44 on OT-II T cells,OT-II CD4 T cells,equivalent levels
same,phosphorylation of PLCγ,PLCγ,significantly reduced
